Measured values from PubChem BioAssay AID1745844 (Carcinogenic Potency Database (CPDB), 2022).
Where “and” joins values, the source holds several entries; their conditions need not be identical. Equal entries are not always repeated. Calls of active or inactive are those of the source. The rule behind the calls is not given here.

Test system: rodent lifetime carcinogenesis bioassay, tumor incidence TD50
Assay: chronic cancer bioassays in animals – CPDB, compiled studies (AID 1745844)

ClC(Cl)C(Cl)Cl
TD50 (mouse, strain B6C3F1, females, by gavage, site: any site (literature study), lesion: several types, types named in the paper, dosed 78 weeks, study length 92 weeks): 37.2 mg/kg/day
TD50 (mouse, strain B6C3F1, females, by gavage, site: liver, lesion: hepatocellular adenoma + hepatocellular carcinoma + neoplastic nodule, dosed 78 weeks, study length 92 weeks): 35.4 mg/kg/day
TD50 (mouse, strain B6C3F1, females, by gavage, site: liver, lesion: hepatocellular carcinoma, dosed 78 weeks, study length 91 weeks): 35.8 mg/kg/day
TD50 (mouse, strain B6C3F1, females, by gavage, site: liver, lesion: hepatocellular carcinoma, dosed 78 weeks, study length 92 weeks): 35.4 mg/kg/day
TD50 (mouse, strain B6C3F1, females, by gavage, site: lung, lesion: alveolar/bronchiolar adenoma + alveolar/bronchiolar carcinoma, dosed 78 weeks, study length 92 weeks): 1910 mg/kg/day
TD50 (mouse, strain B6C3F1, males, by gavage, site: any site (literature study), lesion: several types, types named in the paper, dosed 78 weeks, study length 92 weeks): 38.7 mg/kg/day
TD50 (mouse, strain B6C3F1, males, by gavage, site: liver, lesion: hepatocellular adenoma + hepatocellular carcinoma + neoplastic nodule, dosed 78 weeks, study length 92 weeks): 41.6 mg/kg/day
TD50 (mouse, strain B6C3F1, males, by gavage, site: liver, lesion: hepatocellular carcinoma, dosed 78 weeks, study length 91 weeks): 45.4 mg/kg/day
TD50 (mouse, strain B6C3F1, males, by gavage, site: liver, lesion: hepatocellular carcinoma, dosed 78 weeks, study length 92 weeks): 41.6 mg/kg/day
TD50 (mouse, strain B6C3F1, males, by gavage, site: lung, lesion: alveolar/bronchiolar adenoma + alveolar/bronchiolar carcinoma, dosed 78 weeks, study length 92 weeks): 895 mg/kg/day
TD50 (rat, strain Osborne-Mendel, females, by gavage, site: any site (literature study), lesion: several types, types named in the paper, dosed 77 weeks, study length 110 weeks): 84.2 mg/kg/day (inactive)
carcinogen call (rat, strain Osborne-Mendel, males, by gavage, site: any site (literature study), lesion: several types, types named in the paper, dosed 77 weeks, study length 110 weeks): negative (inactive)
TD50 (rat, strain Osborne-Mendel, males, by gavage, site: liver, lesion: hepatocellular adenoma + hepatocellular carcinoma + neoplastic nodule, dosed 77 weeks, study length 110 weeks): 624 mg/kg/day

O=NN(CC(=O)O)CC(=O)O
TD50 (rat, strain MRC, females, in drinking water, site: any site (literature study), lesion: several types, types named in the paper, dosed 72 weeks, study length 104 weeks): 63.9 mg/kg/day (inactive)
TD50 (rat, strain MRC, males, in drinking water, site: any site (literature study), lesion: several types, types named in the paper, dosed 72 weeks, study length 104 weeks): 76 mg/kg/day (inactive)
TD50 (rat, strain MRC, males, in drinking water, site: pituitary gland, lesion: one or several types, types not named, dosed 72 weeks, study length 104 weeks): 66.9 mg/kg/day (inactive)

Nc1ncn([C@@H]2O[C@H](CO)[C@@H](O)[C@H]2O)c(=O)n1
TD50 (mouse, strain B6C3F1, females, i.p., site: all sites + multiple organs, lesion: lymphoma + granulocytic leukemia + granulocytic sarcoma, dosed 52 weeks, study length 81 weeks): 0.256 mg/kg/day
TD50 (mouse, strain B6C3F1, females, i.p., site: all sites, lesion: lymphoma, dosed 52 weeks, study length 81 weeks): 0.615 mg/kg/day
TD50 (mouse, strain B6C3F1, females, i.p., site: any site (literature study), lesion: several types, types named in the paper, dosed 52 weeks, study length 81 weeks): 0.219 mg/kg/day
TD50 (mouse, strain B6C3F1, females, i.p., site: multiple organs, lesion: granulocytic leukemia + granulocytic sarcoma, dosed 52 weeks, study length 81 weeks): 0.52 mg/kg/day
TD50 (mouse, strain B6C3F1, males, i.p., site: any site (literature study), lesion: several types, types named in the paper, dosed 52 weeks, study length 81 weeks): 1.05 mg/kg/day
TD50 (mouse, strain B6C3F1, males, i.p., site: liver, lesion: hepatocellular adenoma + hepatocellular carcinoma + neoplastic nodule, dosed 52 weeks, study length 81 weeks): 15.7 mg/kg/day
TD50 (mouse, strain B6C3F1, males, i.p., site: lung, lesion: alveolar/bronchiolar adenoma + alveolar/bronchiolar carcinoma, dosed 52 weeks, study length 81 weeks): 61.4 mg/kg/day
TD50 (mouse, strain BALB/c, females, i.p., site: any site (literature study), lesion: one or several types, types not named, dosed 50 weeks, study length 72 weeks): 0.0364 mg/kg/day
TD50 (mouse, strain BALB/c, females, i.p., site: lymphoreticular system, lesion: several types, types named in the paper, dosed 50 weeks, study length 72 weeks): 0.0569 mg/kg/day
TD50 (mouse, strain BALB/c, females, i.p., site: mammary gland, lesion: adenocarcinoma, type B, dosed 50 weeks, study length 72 weeks): 0.618 mg/kg/day
TD50 (mouse, strain BALB/c, females, i.p., site: mammary gland, lesion: several types, types named in the paper, dosed 50 weeks, study length 72 weeks): 0.432 mg/kg/day
TD50 (mouse, strain BALB/c, females, i.p., site: skin, lesion: several types, types named in the paper, dosed 50 weeks, study length 72 weeks): 0.499 mg/kg/day
TD50 (mouse, strain BALB/c, males, i.p., site: any site (literature study), lesion: one or several types, types not named, dosed 50 weeks, study length 67 weeks): 0.0539 mg/kg/day
TD50 (mouse, strain BALB/c, males, i.p., site: liver, lesion: hepatocellular adenoma, dosed 50 weeks, study length 67 weeks): 1.49 mg/kg/day
TD50 (mouse, strain BALB/c, males, i.p., site: lung, lesion: adenoma, dosed 50 weeks, study length 67 weeks): 0.121 mg/kg/day
TD50 (mouse, strain BALB/c, males, i.p., site: lymphoreticular system, lesion: several types, types named in the paper, dosed 50 weeks, study length 67 weeks): 0.285 mg/kg/day
TD50 (mouse, strain BALB/c, males, i.p., site: skin, lesion: several types, types named in the paper, dosed 50 weeks, study length 67 weeks): 0.98 mg/kg/day
TD50 (rat, strain Fischer 344, males, i.p., site: any site (literature study), lesion: one or several types, types not named, dosed 52 weeks, study length 52 weeks): 0.17 mg/kg/day
TD50 (rat, strain Fischer 344, males, i.p., site: testis, lesion: one or several types, types not named, dosed 52 weeks, study length 52 weeks): 0.222 mg/kg/day
TD50 (rat, strain Sprague-Dawley, females, i.p., site: any site (literature study), lesion: several types, types named in the paper, dosed 34 weeks, study length 80 weeks): 0.487 mg/kg/day
TD50 (rat, strain Sprague-Dawley, males, i.p., site: any site (literature study), lesion: several types, types named in the paper, dosed 34 weeks, study length 80 weeks): 0.328 mg/kg/day

Cc1c([N+](=O)[O-])c(C)c([N+](=O)[O-])c(C(C)(C)C)c1[N+](=O)[O-]
TD50 (mouse, strain B6C3F1, females, in feed, site: Harderian gland, lesion: several types, types named in the paper, dosed 80 weeks, study length 90 weeks): 2250 mg/kg/day
TD50 (mouse, strain B6C3F1, females, in feed, site: all sites, lesion: lymphoma, dosed 80 weeks, study length 90 weeks): 1300 mg/kg/day
TD50 (mouse, strain B6C3F1, females, in feed, site: any site (literature study), lesion: malignant tumor, dosed 80 weeks, study length 90 weeks): 418 mg/kg/day
TD50 (mouse, strain B6C3F1, females, in feed, site: liver, lesion: hepatocellular adenoma, dosed 80 weeks, study length 90 weeks): 234 mg/kg/day
TD50 (mouse, strain B6C3F1, females, in feed, site: liver, lesion: hepatocellular carcinoma, dosed 80 weeks, study length 90 weeks): 2190 mg/kg/day
TD50 (mouse, strain B6C3F1, females, in feed, site: liver, lesion: several types, types named in the paper, dosed 80 weeks, study length 90 weeks): 203 mg/kg/day
TD50 (mouse, strain B6C3F1, females, in feed, site: lung, lesion: adenoma, dosed 80 weeks, study length 90 weeks): 1630 mg/kg/day
TD50 (mouse, strain B6C3F1, females, in feed, site: lung, lesion: carcinoma, dosed 80 weeks, study length 90 weeks): 6650 mg/kg/day
TD50 (mouse, strain B6C3F1, females, in feed, site: lung, lesion: several types, types named in the paper, dosed 80 weeks, study length 90 weeks): 1300 mg/kg/day
TD50 (mouse, strain B6C3F1, females, in feed, site: uterus, lesion: endometrial stromal sarcoma, dosed 80 weeks, study length 90 weeks): 533 mg/kg/day
TD50 (mouse, strain B6C3F1, males, in feed, site: Harderian gland, lesion: adenoma, dosed 80 weeks, study length 90 weeks): 383 mg/kg/day
TD50 (mouse, strain B6C3F1, males, in feed, site: Harderian gland, lesion: several types, types named in the paper, dosed 80 weeks, study length 90 weeks): 425 mg/kg/day
TD50 (mouse, strain B6C3F1, males, in feed, site: any site (literature study), lesion: malignant tumor, dosed 80 weeks, study length 90 weeks): 334 mg/kg/day
TD50 (mouse, strain B6C3F1, males, in feed, site: liver, lesion: hepatocellular adenoma, dosed 80 weeks, study length 90 weeks): 232 mg/kg/day
TD50 (mouse, strain B6C3F1, males, in feed, site: liver, lesion: hepatocellular carcinoma, dosed 80 weeks, study length 90 weeks): 313 mg/kg/day
TD50 (mouse, strain B6C3F1, males, in feed, site: liver, lesion: several types, types named in the paper, dosed 80 weeks, study length 90 weeks): 92.1 mg/kg/day
TD50 (mouse, strain B6C3F1, males, in feed, site: lung, lesion: adenoma, dosed 80 weeks, study length 90 weeks): 1200 mg/kg/day

Cc1cc(C)c(N=Nc2c(O)c(S(=O)(=O)O)cc3cc(S(=O)(=O)O)ccc23)cc1C
TD50 (rat, strain Bethesda black, both sexes, in feed, site: liver, lesion: carcinoma, dosed 104 weeks, study length 104 weeks): 2480 mg/kg/day
TD50 (rat, strain Bethesda black, both sexes, in feed, site: liver, lesion: hepatocellular tumor, benign, dosed 104 weeks, study length 104 weeks): 3540 mg/kg/day
TD50 (rat, strain Bethesda black, both sexes, in feed, site: liver, lesion: nodular hyperplasia, dosed 104 weeks, study length 104 weeks): 3040 mg/kg/day
TD50 (rat, strain Bethesda black, both sexes, in feed, site: liver, lesion: several types, types named in the paper, dosed 104 weeks, study length 104 weeks): 746 mg/kg/day
TD50 (rat, strain Not specified, females, in feed, site: bile duct, lesion: adenoma, dosed 65 weeks, study length 65 weeks): 1570 mg/kg/day
TD50 (rat, strain Not specified, females, in feed, site: liver, lesion: carcinoma, dosed 65 weeks, study length 65 weeks): 1990 mg/kg/day
TD50 (rat, strain Not specified, males, in feed, site: bile duct, lesion: adenoma, dosed 65 weeks, study length 65 weeks): 755 mg/kg/day
TD50 (rat, strain Not specified, males, in feed, site: liver, lesion: carcinoma, dosed 65 weeks, study length 65 weeks): 1240 mg/kg/day
TD50 (rat, strain Osborne-Mendel, both sexes, in feed, site: any site (literature study), lesion: malignant tumor, dosed 104 weeks, study length 104 weeks): 12900 mg/kg/day
TD50 (rat, strain Osborne-Mendel, both sexes, in feed, site: liver, lesion: carcinoma, dosed 104 weeks, study length 104 weeks): 7540 mg/kg/day
TD50 (rat, strain Osborne-Mendel, both sexes, in feed, site: liver, lesion: hepatocellular tumor, benign, dosed 104 weeks, study length 104 weeks): 909 mg/kg/day
TD50 (rat, strain Osborne-Mendel, both sexes, in feed, site: liver, lesion: nodular hyperplasia, dosed 104 weeks, study length 104 weeks): 639 mg/kg/day
TD50 (rat, strain Wistar, both sexes, in feed, site: liver, lesion: one or several types, types not named, dosed 65 weeks, study length 65 weeks): 225 mg/kg/day and 394 mg/kg/day
TD50 (rat, strain Wistar, both sexes, in feed, site: liver, lesion: one or several types, types not named, dosed 70 weeks, study length 70 weeks): 314 mg/kg/day and 420 mg/kg/day

COc1ccc(N)c(C)c1
TD50 (mouse, strain B6C3F1, females, by gavage, site: any site (literature study), lesion: several types, types named in the paper, dosed 53 weeks, study length 93 weeks): 69.2 mg/kg/day
TD50 (mouse, strain B6C3F1, females, by gavage, site: liver, lesion: hepatocellular adenoma + hepatocellular carcinoma + neoplastic nodule, dosed 53 weeks, study length 93 weeks): 206 mg/kg/day
TD50 (mouse, strain B6C3F1, females, by gavage, site: liver, lesion: hepatocellular adenoma + hepatocellular carcinoma, dosed 53 weeks, study length 93 weeks): 206 mg/kg/day (inactive)
TD50 (mouse, strain B6C3F1, females, by gavage, site: lung, lesion: alveolar/bronchiolar adenoma + alveolar/bronchiolar carcinoma, dosed 53 weeks, study length 93 weeks): 250 mg/kg/day
TD50 (mouse, strain B6C3F1, males, by gavage, site: any site (literature study), lesion: several types, types named in the paper, dosed 53 weeks, study length 93 weeks): 72.2 mg/kg/day
TD50 (rat, strain Fischer 344, females, by gavage, site: any site (literature study), lesion: several types, types named in the paper, dosed 77 weeks, study length 109 weeks): 51.5 mg/kg/day
TD50 (rat, strain Fischer 344, females, by gavage, site: liver, lesion: hepatocellular adenoma + hepatocellular carcinoma + neoplastic nodule, dosed 77 weeks, study length 109 weeks): 1100 mg/kg/day
TD50 (rat, strain Fischer 344, females, by gavage, site: mammary gland, lesion: fibroadenoma, dosed 77 weeks, study length 109 weeks): 52.7 mg/kg/day
TD50 (rat, strain Fischer 344, females, by gavage, site: urinary bladder, lesion: transitional-cell carcinoma, dosed 77 weeks, study length 109 weeks): 769 mg/kg/day
TD50 (rat, strain Fischer 344, males, by gavage, site: any site (literature study), lesion: several types, types named in the paper, dosed 77 weeks, study length 109 weeks): 368 mg/kg/day
TD50 (rat, strain Fischer 344, males, by gavage, site: liver, lesion: hepatocellular adenoma + hepatocellular carcinoma + neoplastic nodule, dosed 77 weeks, study length 109 weeks): 506 mg/kg/day
TD50 (rat, strain Fischer 344, males, by gavage, site: urinary bladder, lesion: transitional-cell carcinoma, dosed 77 weeks, study length 109 weeks): 470 mg/kg/day
